According to patent publication EP4603105A1, “PHARMACEUTICAL COMPOSITION CONTAINING CYCLIC COMPOUND HAVING SELECTIVE KRAS INHIBITORY EFFECT AGAINST HRAS AND NRAS” (CHUGAI SEIYAKU KABUSHIKI KAISHA, priority 2022, dated 2024):
Where a SMILES comes first, the peptide text is derived from it. Bridges are numbered along the chain shown (N, C = ends). [ ]: non-standard residue; d: D form. The star is where a group is joined. hPhe(3-Cl-4-CF3) = N[C@@H](CCc1ccc(C(F)(F)F)c(Cl)c1)C(=O)O; NPrPhe(4-CF3) = CCCN[C@@H](Cc1ccc(C(F)(F)F)cc1)C(=O)O; NMeGly(cPent) = CN[C@H](C(=O)O)C1CCCC1; NMeD = CN[C@@H](CC(=O)O)C(=O)O; NMeL = CN[C@@H](CC(C)C)C(=O)O; Morpholide = C1CN(*)CCO1; Ac5c = NC1(C(=O)O)CCCC1; Aze = O=C(O)[C@@H]1CCN1; Sar = CNCC(=O)O

How the values were obtained:
[1] = molecular target: GDP-bound KRAS wild-type protein (Homo sapiens, UniProt P01116); assay: Binding to KRAS by surface plasmon resonance (SPR), dissociation constant KD
Method in brief: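 Read-out is KD from 1:1 fitting of single-cycle kinetics sensorgrams, blank-cycle and reference-surface corrected. Proteins were GDP-loaded, biotinylated Avi-fusions freshly captured each cycle at roughly 100–300 RU. Runs were at 30°C in HBS pH 7.4 with MgCl2, GDP and 4% DMSO.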

[2] = molecular target: GDP-bound NRAS wild-type protein (Homo sapiens, UniProt P01111); assay: Binding to NRAS by surface plasmon resonance (SPR), KD and KD ratio to KRAS
Method in brief: (§1)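 Recombinant RAS proteins bearing a biotinylated Avi tag and loaded with GDP served as the captured ligand, recaptured fresh every cycle. Binding responses were referenced to an uncoated surface and a buffer-only blank cycle. Dissociation constants were obtained by 1:1 model fitting at 30°C.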

HRAS wild-type protein = HRAS wild-type protein (Homo sapiens, UniProt P01112); assay: Binding to HRAS by surface plasmon resonance (SPR), KD and KD ratio to KRAS
Method in brief: as §1

[3] = test system: human lung cancer strain NCI-H441; assay type: cell-based
Method in brief: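 Signal came from […] measured per well once the reagent was added. Beforehand, cells were cultured at 37°C and 5% carbon dioxide on a compound series serially diluted in dimethyl sulfoxide.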

[4] = ratio of KD for GDP-bound NRAS wild-type protein to KD for KRAS
[5] = ratio of KD for HRAS wild-type protein to KD for KRAS
[6] = Single Cycle Kinetics, 1:1 binding model
[7] = ratio of the KD value with respect to GDP-bound NRAS wild-type protein to the KD value with respect to KRAS
[8] = ratio of the KD value with respect to HRAS wild-type protein to the KD value with respect to KRAS

Chain of GDP-bound NRAS wild-type protein (P01111 whole entry): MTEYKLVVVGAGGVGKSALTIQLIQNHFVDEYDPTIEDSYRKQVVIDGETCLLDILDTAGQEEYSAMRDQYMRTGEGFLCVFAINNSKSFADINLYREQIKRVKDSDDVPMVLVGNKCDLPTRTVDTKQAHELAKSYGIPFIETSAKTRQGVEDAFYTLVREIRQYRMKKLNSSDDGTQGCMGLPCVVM
Chain of HRAS wild-type protein (P01112 whole entry): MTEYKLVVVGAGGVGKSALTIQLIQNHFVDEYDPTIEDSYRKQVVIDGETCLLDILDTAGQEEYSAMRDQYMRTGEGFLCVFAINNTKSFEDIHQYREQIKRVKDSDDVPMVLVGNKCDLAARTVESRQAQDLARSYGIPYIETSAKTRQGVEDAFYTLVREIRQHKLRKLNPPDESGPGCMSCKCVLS
Chain of GDP-bound KRAS wild-type protein (P01116 1-188 isoform P01116-2): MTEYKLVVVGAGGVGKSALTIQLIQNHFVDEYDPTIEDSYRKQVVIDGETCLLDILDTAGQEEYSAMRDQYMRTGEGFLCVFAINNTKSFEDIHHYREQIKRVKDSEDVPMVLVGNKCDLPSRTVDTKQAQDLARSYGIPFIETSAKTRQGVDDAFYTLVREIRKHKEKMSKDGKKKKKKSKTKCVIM

Compound	Kd ([1]; 1:1 binding model) [nM]	IC50 [3] [nM]	Kd ([1]; Single Cycle Kinetics) [nM]	Kd [1, 6] [nM]	NRAS /KRAS [2, 4]	HRAS /KRAS (HRAS wild-type protein; [5])	NRAS /KRAS [2, 7]	HRAS /KRAS (HRAS wild-type protein; [8])
CCCN1C(=O)CN(C)C(=O)[C@@H]2CCN2C(=O)[C@H]([C@@H](C)CC)NC(=O)[C@H](CC(C)C)N(C)C(=O)C[C@@H](C(=O)N2CCOCC2)N(C)C(=O)[C@H](C2CCCC2)N(C)C(=O)C2(CCCC2)NC(=O)[C@@H]2CCCN2C(=O)[C@H](CCc2ccc(C(F)(F)F)c(Cl)c2)NC(=O)CN(C)C(=O)[C@@H]1Cc1ccc(C(F)(F)F)cc1 [PP0158] ([NMeL]I[Aze][Sar][NPrPhe(4-CF3)][Sar][hPhe(3-Cl-4-CF3)]P[Ac5c][NMeGly(cPent)][NMeD]-Morpholide; lactam N-11)	0.85	15.4			A (a compound having 10 or more and less than 20 is denoted as A)	B (a compound having 3 or more and less than 10 is denoted as B)		
CCC[C@H]1C(=O)N[C@@H]([C@@H](C)CC)C(=O)N(C)CC(=O)N(C)[C@H]2C/C=C\CCN(C2=O)[C@@H](Cc2ccc(C)cc2)C(=O)N(C)CC(=O)N[C@@H](CCc2ccc3c(C)c(C)n(C)c3c2)C(=O)N2C[C@H](OCC)C[C@H]2C(=O)NC2(CC(C)(C)C2)C(=O)N(C)[C@@H](C(CC)CC)C(=O)N(C)[C@H](C(=O)N(C)C)CC(=O)N1C [PP2906]	5.5	99.3			A (a compound having 10 or more and less than 20 is denoted as A)	A (a compound having 10 or more and less than 20 is denoted as A)		
CC[C@H](C)[C@@H]1NC(=O)[C@H](CC2CC2)N(C)C(=O)C[C@@H](C(=O)N(C)CC)N(C)C(=O)[C@H](C2CCCC2)N(C)C(=O)C2(CC(C)(C)C2)NC(=O)[C@@H]2C[C@@H](F)CN2C(=O)[C@H](CCc2cc(F)c(C(F)(F)F)c(F)c2)NC(=O)CN(C)C(=O)[C@H](Cc2ccc(C)cc2)N2CC/C=C\C[C@@H](C2=O)N(C)C(=O)CN(C)C1=O [PP2802]	0.034	5.5			AA (a compound having 20 or more is denoted as AA)	A (a compound having 10 or more and less than 20 is denoted as A)		
CCCN(C)C(=O)[C@@H]1CC(=O)N(C)[C@@H](CC(C)C)C(=O)N[C@@H]([C@@H](C)CC)C(=O)N(C)CC(=O)N(C)[C@H]2C/C=C\CCN(C2=O)[C@@H](Cc2ccc(C(F)(F)F)cc2)C(=O)N(C)CC(=O)N[C@@H](CCc2cc(F)c(C(F)(F)F)c(F)c2)C(=O)N2C[C@H](OCC)C[C@H]2C(=O)NC2(COC2)C(=O)N(C)[C@@H](C2CCCC2)C(=O)N1C [PP1938]		34.6		0.34			AA (a compound having 20 or more is denoted as AA)	A (a compound having 10 or more and less than 20 is denoted as A)
CCCOC[C@H]1C(=O)N[C@@H]([C@@H](C)CC)C(=O)N(C2CC2)CC(=O)N(C)[C@H]2C/C=C\CCN(C2=O)[C@@H](CC2CCC(F)(F)CC2)C(=O)N(C)CC(=O)N[C@@H](CCc2ccc(C(F)(F)F)c(OC)c2)C(=O)N2C[C@H](OCC)C[C@H]2C(=O)N(C)C2(CCC2)C(=O)N(C)[C@@H](C2CCCC2)C(=O)N(C)[C@H](C(=O)N(C)C)CC(=O)N1C [PP2354]		9.3		0.79			A (a compound having 10 or more and less than 20 is denoted as A)	A (a compound having 10 or more and less than 20 is denoted as A)

Further lines, with some results ahead:

Kd ([1]; 1:1 binding model) [nM]	IC50 [3] [nM]	Kd ([1]; Single Cycle Kinetics) [nM]	Kd [1, 6] [nM]	Compound	NRAS /KRAS [2, 4]	HRAS /KRAS (HRAS wild-type protein; [5])	NRAS /KRAS [2, 7]	HRAS /KRAS (HRAS wild-type protein; [8])
	296	0.76		CCO[C@@H]1C[C@H]2C(=O)NC3(CCC3)C(=O)N(C)[C@@H](C3CCCC3)C(=O)N(C)[C@H](C(=O)N(C)C)CC(=O)N(CC)[C@@H](CC(C)C)C(=O)N[C@@H]([C@@H](C)CC)C(=O)N(C)CC(=O)N(C)[C@H]3CC(C)=CCN(C3=O)[C@@H](Cc3ccc(C(F)(F)F)cc3)C(=O)N(C)CC(=O)N[C@@H](CCc3cc(F)c(C(F)(F)F)c(F)c3)C(=O)N2C1 [PP1037]	C (A compound having a KD ratio of 0.1 or more and less than 3 is denoted as C)	C (A compound having a KD ratio of 0.1 or more and less than 3 is denoted as C)		
1.1	137			CCC(CC)[C@H]1C(=O)N(C)[C@H](C(=O)N(C)C)CC(=O)N(C)[C@@H](COC)C(=O)N[C@@H]([C@@H](C)CC)C(=O)N(C)CC(=O)N(C)[C@H]2C/C=C\CCN(C2=O)[C@@H](Cc2ccc(C)cc2)C(=O)N(C)CC(=O)N[C@@H](CCc2ccc(C(F)(F)F)c(OC)c2)C(=O)N2CCCC[C@H]2C(=O)NC2(CC(C)(C)C2)C(=O)N1C [PP2937]	A (a compound having 10 or more and less than 20 is denoted as A)	A (a compound having 10 or more and less than 20 is denoted as A)		
	56.6	0.59		CC[C@H](C)[C@@H]1NC(=O)[C@H](CC(C)C)N(C)C(=O)C[C@@H](C(=O)N2CCOCC2)N(C)C(=O)[C@H](C2CCCC2)N(C)C(=O)C2(CCCC2)NC(=O)[C@@H]2CCCN2C(=O)[C@H](CCc2cc(F)c(C(F)(F)F)c(F)c2)NC(=O)CN(C)C(=O)[C@H](Cc2ccc(F)cc2)N2CCCCC[C@@H](C2=O)N(C)C(=O)CN(C)C1=O [PP0964]	B (a compound having 3 or more and less than 10 is denoted as B)	B (a compound having 3 or more and less than 10 is denoted as B)		
